What was measured:
EP2 [1] = target: T1, EP2 (Homo sapiens, UniProt P43116); test: EP2 cAMP functional assay; format: cell-based
EP2 [2] = target: T1, EP2; test: EP2 Ca2+ signal assay; format: cell-based
EP2 [3] = target: T1, EP2; test: EP2 binding assay

T1 sequence (P43116 whole entry): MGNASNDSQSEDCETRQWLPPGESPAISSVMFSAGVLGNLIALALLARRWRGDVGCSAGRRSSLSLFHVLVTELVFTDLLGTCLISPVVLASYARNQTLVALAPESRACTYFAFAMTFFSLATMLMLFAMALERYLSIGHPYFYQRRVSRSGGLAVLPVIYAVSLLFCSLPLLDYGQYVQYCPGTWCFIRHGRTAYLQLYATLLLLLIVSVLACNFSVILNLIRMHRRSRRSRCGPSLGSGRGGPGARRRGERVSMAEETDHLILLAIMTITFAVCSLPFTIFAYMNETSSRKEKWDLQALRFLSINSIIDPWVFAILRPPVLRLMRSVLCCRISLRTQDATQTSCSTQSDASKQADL

Row | EC50 (EP2 [1]) [nM] | EC50 (EP2 [2]) [nM] | EC50 (EP2 [3]) [nM] | SMILES
1 | 98 | 5420 | 1200 | CCCCCC(=O)c1ccc(N2C(COCc3ccc(C(=O)O)s3)CCS2(=O)=O)cc1 (stereo not drawn) [Compound 17]
2 | 115 | 8320 | 2920 | CCCCCC(O)c1ccc(N2C(COCc3ccc(C(=O)O)s3)CCS2(=O)=O)cc1 (stereo not drawn) [Compound 15]

Source: US7897629B2, “Therapeutic compounds” (Allergan, Inc., priority 2006, dated 2011)
